Source: publication PMC7100484 (Pharmaceutical Research, 2020)

Columns and labels:
West Nile virus = details: 10 mg/kg; cited from earlier work
[1] = not told; cited from earlier work
mitochondrial potential = details: cited from earlier work
[2] = system: Encephalomyocarditis virus (EMCV); details: mouse, in vivo; cited from earlier work
Mengo virus = details: mouse, in vivo; cited from earlier work
Semliki Forest = details: mouse, in vivo; cited from earlier work
cytokines and chemokines = details: mouse, in vivo; cited from earlier work
ZIKV = test: microbe, parasite or virus in culture; assay type: cell-based; details: Zika virus
interferon = details: in vivo, po; cited from earlier work
MCF7 Cells = test: cells; assay type: cell-based; details: Homo sapiens, MCF7, read-out: IC50, inhibition of total fluorescent intensity/cell of Lysotracker Red
[3] = molecular target: Human Viral RNA Sensor RIG-I (Homo sapiens, UniProt O95786); test: biochemical; assay type: binding
Sequence of Human Viral RNA Sensor RIG-I (O95786 whole entry): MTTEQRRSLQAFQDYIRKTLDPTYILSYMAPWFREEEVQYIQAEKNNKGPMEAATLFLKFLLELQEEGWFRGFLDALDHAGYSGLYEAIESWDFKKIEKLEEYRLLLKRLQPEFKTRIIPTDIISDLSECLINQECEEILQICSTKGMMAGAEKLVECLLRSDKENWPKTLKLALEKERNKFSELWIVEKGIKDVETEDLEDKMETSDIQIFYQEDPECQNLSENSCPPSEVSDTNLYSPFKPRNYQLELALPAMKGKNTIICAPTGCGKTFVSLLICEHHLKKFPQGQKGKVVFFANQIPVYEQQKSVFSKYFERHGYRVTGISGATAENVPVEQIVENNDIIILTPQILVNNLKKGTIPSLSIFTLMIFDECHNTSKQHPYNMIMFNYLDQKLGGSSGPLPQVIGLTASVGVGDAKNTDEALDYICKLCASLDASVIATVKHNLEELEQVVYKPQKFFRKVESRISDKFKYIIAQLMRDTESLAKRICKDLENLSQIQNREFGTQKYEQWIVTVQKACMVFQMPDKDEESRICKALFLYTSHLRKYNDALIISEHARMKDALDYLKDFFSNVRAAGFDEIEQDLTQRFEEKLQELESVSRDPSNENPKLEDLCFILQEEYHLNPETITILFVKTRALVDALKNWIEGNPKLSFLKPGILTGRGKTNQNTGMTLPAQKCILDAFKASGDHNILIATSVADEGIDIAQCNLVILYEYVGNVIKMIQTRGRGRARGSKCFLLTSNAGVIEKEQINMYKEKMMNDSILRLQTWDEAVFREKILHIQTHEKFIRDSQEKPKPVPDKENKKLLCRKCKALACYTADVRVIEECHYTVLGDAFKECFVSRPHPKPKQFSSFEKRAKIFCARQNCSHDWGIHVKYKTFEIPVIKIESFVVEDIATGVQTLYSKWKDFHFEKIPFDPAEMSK

EMCV = details: cited from earlier work
macrophages = macrophages from naive BALB/c mice; cited from earlier work
Influenza A/Jap/305 = details: mouse, in vivo; cited from earlier work
Influenza B = details: mouse, in vivo; cited from earlier work
[4] = system: respiratory tract infections; details: in vivo; cited from earlier work
Herpes simplex virus 1 = details: 250 mg/kg oral doses for 7 days; cited from earlier work
fibroblasts = details: cited from earlier work
[5] = microsomes; cited from earlier work

CCN(CC)CCOc1ccc2c(c1)C(=O)c1cc(OCCN(CC)CC)ccc1-2 [Tilorone, 2,7-Bis[2-(diethylamino)ethoxy]-9H-fluoren-9-one]
lethality protection (West Nile virus): 46% lethality protection at 10 mg/kg
permeability (in words) [1]: highly permeable
mitochondrial potential (mitochondrial potential): rapid increase
survival in mice [2]: 80% survival in mice at 250 mg/kg single oral dose
survival in mice (Mengo virus): 80% survival in mice at 250 mg/kg single oral dose
survival in mice (Semliki Forest): 100% survival in mice at 250 mg/kg single oral dose
levels of IL-6, IL-10, IL-12 (p40), IL-12 (p70), IL-17, Eotaxin, MCP-1, MIP-1B and RANTES (cytokines and chemokines): significantly higher levels
EC50 (ZIKV): 5.2 µM
interferon induction (interferon): inducer of interferon
IC50 (MCF7 Cells): ~4 µM
EC50 [3]: 500 µM
drop of virus titer (EMCV): 1 log drop of virus titer at 25 mg/ml in vitro
in vivo secretion of IL-6, TNF-a and IL-12 (macrophages): increase in vivo secretion
survival in mice (Influenza A/Jap/305): 30% survival in mice at 250 mg/kg single oral dose
survival in mice (Influenza B): 50% survival in mice at 250 mg/kg single oral dose
prophylactic efficacy [4]: 72%
survival in mice (Herpes simplex virus 1): 45% survival in mice at 250 mg/kg oral doses for 7 days
ATP-dependent acidification (fibroblasts): inhibited the ATP-dependent acidification
lysosomal pH (fibroblasts): increase lysosomal pH
secretion of precursor forms of lysosomal enzymes (fibroblasts): enhanced the secretion of precursor forms of lysosomal enzymes
storage of sulfated glycosaminoglycans (fibroblasts): induce the storage of sulfated glycosaminoglycans
species-liver microsome stability relationship [5]: increased in the order of guinea pig, non-human primate, mouse, followed by human
